For assay [1], the target named is Human CB1R (Cannabanoid receptor 1) (Homo sapiens (Human), UniProt P21554). Nature of the assay: CB-1 in vitro cAMP (HTRF) assay in HEK-293 cells. Format: cell-based. The conditions noted are these: HEK-293 cells stably transfected with human CB1R, 250 nM Forskolin, mean where tested more than once, read-out: CB-1 (HEK_cAMP) EC50. The source says: (§1) CB1 and CB2 receptors are Gi-coupled GPCR. Activation of CB1 and CB2 receptors results in a decrease in cAMP production. An inverse agonist of the CB1 or CB2 receptor results in the opposite effect, an increase of cAMP production. The principle of this assay is based on HTRF® technology (Homogeneous Time-Resolved Fluorescence). The method is a competitive immunoassay between native cAMP produced by cells and the cAMP labeled with the fluorophore d2. The tracer binding is quantified by a Mab anti-cAMP labeled with Eu3+TBP-NHS Cryptate (supplied as part of the assay kit). The specific signal (i.e. energy transfer) is inversely proportional to the concentration of cAMP in the standard or sample.
Sequence of Human CB1R (Cannabanoid receptor 1) (P21554 whole entry): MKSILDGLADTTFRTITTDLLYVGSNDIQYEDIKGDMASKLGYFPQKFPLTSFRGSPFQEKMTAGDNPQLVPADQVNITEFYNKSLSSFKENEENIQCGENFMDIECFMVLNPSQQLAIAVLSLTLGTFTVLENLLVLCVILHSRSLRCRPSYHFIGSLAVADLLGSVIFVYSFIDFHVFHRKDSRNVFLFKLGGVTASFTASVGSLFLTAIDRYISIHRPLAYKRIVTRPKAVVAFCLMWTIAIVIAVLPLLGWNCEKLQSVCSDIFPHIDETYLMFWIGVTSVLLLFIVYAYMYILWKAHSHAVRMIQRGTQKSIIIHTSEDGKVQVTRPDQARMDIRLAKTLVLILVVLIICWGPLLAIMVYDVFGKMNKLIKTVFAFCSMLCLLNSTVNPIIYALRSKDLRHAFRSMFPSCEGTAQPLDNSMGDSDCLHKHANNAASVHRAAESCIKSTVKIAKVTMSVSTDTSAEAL
(§2) Human CB1R (Cannabanoid receptor 1) was stably transfected in HEK-293 cells (DiscoveRx, cat: 93-0200C1). Human CB2R (Cannabanoid receptor 2) was stably transfected in HEK-293 cells (DiscoveRx, cat: 93-0201C1). Cell cultures were maintained in media: DMEM (Invitrogen Cat#12430-054) supplemented with 10% HI FBS (Invitrogen Cat#16140-071), 1% L-glutamine (Invitrogen Cat#25030-081), 0.2 mg/ml Hygromycin B (Invitrogen Cat#10687-010), 600 μg/mL G418 (Invitrogen Cat#10131-035), and 1× Penn/Strep (Invitrogen 15140-122). After cell expansion, aliquots were cryo-stored in media containing 5% DMSO (Pierce Cat#20684).
(§3) One day prior to experiments media was warmed to 37° C. and the cryo-stored cells were thawed in a 37° C. water bath. The cells were then added to media (10× volume) and the mixture was centrifugated at 1000 RPM for 5 min. The supernate was removed and the cells were re-suspended in media. A sample of the cell suspension was evaluated on a Cedex XS automated cell counter (Innovatis Systems) to determine viable cells/ml. Additional media was added to the cells to achieve a final cell density of 4E5 cells/mL. The cells were then plated into 384 well PDL white solid bottom plates (Greiner, Cat#781945) at 20 μL per well using a Multidrop (Thermo Scientific). Cells were removed from Row P (location of cAMP standards). Two columns of cells were plated into a clear bottom 384 well PDL coated plate (Greiner, Cat#781944) to view confluence the day of the assay. The cell plates were lidded and stored for 15 minutes in a hood, then transferred to an incubator (37° C., 5% CO2, 95% humidity) overnight.
(§4) DMSO was added to all wells of 384 well V bottom polystyrene plate (Greiner, Cat#781280) except to columns 1 and 13, rows O and P and wells M13-M23 and N13-N23. Test compounds (60 μL, 10 mM) were added to Column 1 and 13 (A1 through N1 and A13 through L13). Test compounds were serially diluted 1/3 by transferring and mixing 20 μl sample with 40 μL DMSO.
(§5) DMSO (40 μL) was added to wells of 384 well V bottom polystyrene plate: O2 through O11, M14 through M23, N14 through N23, and O14 through 023. AM630 (also known as [6-iodo-2-methyl-1-[2-(4-morpholinyl)ethyl]-1H-indol-3-yl](4-methoxyphenyl)-methanone, Cayman Chemical, Cat#10006974) (60 μL, 10 mM) was added to 01; and 1-(2,4-dichlorophenyl)-7-[(4-fluorophenyl)methylene]-4,5,6,7-tetrahydro-N-1-piperidinyl-1H-indazole-3-carboxamide (60 μL, 10 mM) was added to N13. The control was serially diluted 1/3 by transferring and mixing 20 μl sample with 40 μL DMSO. This process resulted 11 doses per control, 10 mM to […].
(§6) Cells plated the day prior to the assay in clear bottom plates were viewed on an inverse microscope to ensure confluency in the range of 60-75%. […]
(Time-resolved FRET reads energy transfer from a long-lived donor to a nearby acceptor.)

Assay [2] addresses Human CB2R (Cannabanoid receptor 2) (Homo sapiens (Human), UniProt P34972). Kind of assay: CB-2 in vitro cAMP (HTRF) assay in HEK-293 cells. The assay is classed as cell-based. The settings on record: HEK-293 cells stably transfected with human CB2R, 250 nM Forskolin, mean where tested more than once, read-out: CB-2 (HEK_cAMP) EC50.
Description: as §1, §2, §3, §4, §5, §6

As a reminder, the EC50 is the concentration that produces a half-maximal response.

A value given as a limit tells only on which side of the number the result lay.

Sequence of Human CB2R (Cannabanoid receptor 2) (P34972 whole entry): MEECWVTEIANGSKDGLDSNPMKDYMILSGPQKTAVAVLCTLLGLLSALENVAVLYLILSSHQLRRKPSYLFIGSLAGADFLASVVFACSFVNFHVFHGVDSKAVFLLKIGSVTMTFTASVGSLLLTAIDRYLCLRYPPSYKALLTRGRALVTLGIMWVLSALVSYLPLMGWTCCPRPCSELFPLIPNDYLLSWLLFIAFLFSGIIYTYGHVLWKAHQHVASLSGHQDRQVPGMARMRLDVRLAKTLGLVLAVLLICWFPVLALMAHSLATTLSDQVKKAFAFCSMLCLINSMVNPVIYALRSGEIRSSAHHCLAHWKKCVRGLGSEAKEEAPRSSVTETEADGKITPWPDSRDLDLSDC

As to `CC(O)Cn1nc(C2CCN(S(=O)(=O)C(F)(F)F)CC2)c2cc(C(c3ccc(Cl)cc3)c3ccc(Cl)cc3)ccc21` (centres unmarked) [Compound 202], the EC50 is 169 nM in assay [1] and over 10000 nM in assay [2].

In the case of `O=C(O)c1ccc(S(=O)(=O)N2CCC(c3n[nH]c4ccc(C(c5ccc(Cl)cc5)c5ccc(Cl)cc5)cc34)C2)o1` (centres unmarked) [Compound 270], the EC50 in assay [1] was 9600 nM; in assay [2] it was over 10000 nM.

On to `O=C(CC(F)(F)F)N1CCC(c2n[nH]c3ccc(C(c4ccc(Cl)cc4)c4ccc(Cl)cc4)cc23)CC1` [Compound 56], for which the EC50 was 72 nM in assay [1] and over 10000 nM in assay [2].

With `O=S(=O)(N1CCC(c2c3cc(C(c4ccc(Cl)cc4)c4ccc(Cl)cc4)ccc3nn2C2CC2)CC1)C(F)(F)F` [Compound 136, 5-(bis(4-chlorophenyl)methyl)-2-cyclopropyl-3-(1-(trifluoromethylsulfonyl)piperidin-4-yl)-2H-indazole], the EC50 is 11 nM in assay [1] and over 10000 nM in assay [2].

With `O=C(O)c1ccccc1C(=O)N1CCC(c2nn(C3CC3)c3ccc(C(c4ccc(Cl)cc4)c4ccc(Cl)cc4)cc23)CC1` [Compound 103], the values for the EC50 in assay [1] and in assay [2] were 6010 nM and over 10000 nM, respectively.

For `O=C(O)c1cccc(N2CCC(c3c4cc(C(c5ccc(Cl)cc5)c5ccc(Cl)cc5)ccc4nn3C3CC3)CC2)c1` [Compound 183], the 50% effective concentration (EC50) is 77 nM in assay [1] and over 10000 nM in assay [2].

Consider `COC(=O)c1ccccc1S(=O)(=O)N1CCC(c2n[nH]c3ccc(C(c4ccc(Cl)cc4)c4ccc(Cl)cc4)cc23)CC1` [Compound 31], for which the EC50 in assay [1] worked out at 128 nM; in assay [2], 2340 nM.

As to `O=C(c1c[nH]nn1)N1CCC(c2n[nH]c3ccc(C(c4ccc(Cl)cc4)c4ccc(Cl)cc4)cc23)CC1` [Compound 145], the EC50 in assay [1] was 49 nM; in assay [2] it was over 10000 nM.

For `O=C(O)c1ccc(C(=O)N2CCC(c3c4cc(C(c5ccc(Cl)cc5)c5ccc(Cl)cc5)ccc4nn3C3CC3)CC2)cc1` [Compound 113], the EC50 in assay [1] is 4240 nM; in assay [2], over 10000 nM.

Turning to `O=C(CO)N1CCC(c2nn(C3CC3)c3ccc(C(c4ccc(Cl)cc4)c4ccc(Cl)cc4)cc23)CC1` [Compound 91], the figures for the EC50 in assay [1] and in assay [2] were 39 nM and over 10000 nM, respectively.

For the compound `O=S(=O)(N1CCC(c2n[nH]c3ccc(C(c4ccc(Cl)cc4)c4ccc(Cl)cc4)cc23)CC1)C(F)(F)F` [Compound 173], the results for the EC50 in assay [1] and in assay [2] were 7 nM and 5780 nM, respectively.

As for `NC(=O)c1csc(CN2CCC(c3c4cc(C(c5ccc(Cl)cc5)c5ccc(Cl)cc5)ccc4nn3C3CC3)CC2)c1` [Compound 237, 5-((4-(5-(bis(4-chlorophenyl)methyl)-2-cyclopropyl-2H-indazol-3-yl)piperidin-1-yl)methyl)thiophene-3-carboxamide], the EC50 in assay [1] is 5 nM; in assay [2], over 10000 nM.

With `NC(=O)c1ccc(S(=O)(=O)N2CCC(c3nn(CCO)c4ccc(C(c5ccc(Cl)cc5)c5ccc(Cl)cc5)cc34)CC2)cc1` [Compound 69], the EC50 in assay [1] was 26 nM; in assay [2], over 10000 nM.

For the compound `COc1cc(S(=O)(=O)N2CCC(c3c4cc(C(c5ccc(Cl)cc5)c5ccc(Cl)cc5)ccc4nn3C3CC3)CC2)ccc1C(N)=O` [Compound 146, 4-(4-(5-(bis(4-chlorophenyl)methyl)-2-cyclopropyl-2H-indazol-3-yl)piperidin-1-ylsulfonyl)-2-methoxybenzamide], the EC50 is 7 nM in assay [1] and over 10000 nM in assay [2].

Turning to `O=S(=O)(C1CC1)N1CCC(c2n[nH]c3ccc(C(c4ccc(Cl)cc4)c4ccc(Cl)cc4)cc23)CC1` [Compound 54], the results for the EC50 in assay [1] and in assay [2] were 27 nM and over 10000 nM, respectively.

Regarding `CNC(=O)c1ccc(S(=O)(=O)N2CCC(c3c4cc(C(c5ccc(Cl)cc5)c5ccc(Cl)cc5)ccc4nn3C3CC3)CC2)cc1OC` [Compound 147, 4-(4-(5-(bis(4-chlorophenyl)methyl)-2-cyclopropyl-2H-indazol-3-yl)piperidin-1-ylsulfonyl)-2-methoxy-N-methylbenzamide], the figures for the EC50 in assay [1] and in assay [2] were 23 nM and over 10000 nM, respectively.

For `O=C(OC1CCCC1)N1CCC(c2n[nH]c3ccc(C(c4ccc(Cl)cc4)c4ccc(Cl)cc4)cc23)CC1` [Compound 271], the EC50 in assay [1] was 40 nM; in assay [2], over 10000 nM.

`NC(=O)c1cccc(S(=O)(=O)N2CCC(c3c4cc(C(c5ccc(Cl)cc5)c5ccc(Cl)cc5)ccc4nn3C3CC3)CC2)c1` [Compound 140, 3-(4-(5-(bis(4-chlorophenyl)methyl)-2-cyclopropyl-2H-indazol-3-yl)piperidin-1-ylsulfonyl)benzamide]: the EC50 in assay [1] was 11 nM; in assay [2] it was over 10000 nM.

As for `NC(=O)c1cccc(S(=O)(=O)N2CCC(Nc3n[nH]c4ccc(C(c5ccc(Cl)cc5)c5ccc(Cl)cc5)cc34)CC2)c1` [Compound 122], the EC50 in assay [1] was 99 nM; in assay [2] it was over 10000 nM.

With `COC(=O)Cn1nc(N2CCN(S(=O)(=O)C(F)(F)F)CC2)c2cc(C(c3ccc(Cl)cc3)c3ccc(Cl)cc3)ccc21` [Compound 20], the results for the EC50 in assay [1] and in assay [2] were 165 nM and over 10000 nM, respectively.

Regarding `O=S(=O)(c1ccc(C(F)(F)F)cc1)N1CCC(c2n[nH]c3ccc(C(c4ccc(Cl)cc4)c4ccc(Cl)cc4)cc23)CC1` [Compound 32], the EC50 in assay [1] was 71 nM; in assay [2], over 10000 nM.

As for `NC(=O)c1ccccc1S(=O)(=O)N1CCC(c2nn(C3CC3)c3ccc(C(c4ccc(Cl)cc4)c4ccc(Cl)cc4)cc23)CC1` [Compound 93], the EC50 is 533 nM in assay [1] and over 10000 nM in assay [2].

Take `NC(=O)c1ccccc1C(=O)N1CCC(c2c3cc(C(c4ccc(Cl)cc4)c4ccc(Cl)cc4)ccc3nn2C2CC2)CC1` [Compound 141]: the EC50 in assay [1] is 6120 nM; in assay [2], over 10000 nM.

Regarding `NC(=O)c1ccc(-n2nc(C3CCN(S(=O)(=O)C(F)(F)F)CC3)c3cc(C(c4ccc(Cl)cc4)c4ccc(Cl)cc4)ccc32)cc1` [Compound 205], the EC50 in assay [1] was 6 nM; in assay [2], 2120 nM.

In the case of `CNC(=O)c1ccc(S(=O)(=O)N2CCC(c3c4cc(C(c5ccc(Cl)cc5)c5ccc(Cl)cc5)ccc4nn3C3CC3)CC2)cc1Cl` [Compound 154, 4-(4-(5-(bis(4-chlorophenyl)methyl)-2-cyclopropyl-2H-indazol-3-yl)piperidin-1-ylsulfonyl)-2-chloro-N-methylbenzamide], the EC50 is 4 nM in assay [1] and over 10000 nM in assay [2].

For `NC(=O)c1ccc(S(=O)(=O)N2CCC(c3c4cc(C(c5ccc(Cl)cc5)c5ccc(Cl)cc5)ccc4nn3C3CC3)CC2)cc1` [Compound 118, 4-(4-(5-(bis(4-chlorophenyl)methyl)-2-cyclopropyl-2H-indazol-3-yl)piperidin-1-ylsulfonyl)benzamide], the EC50 is 4 nM in assay [1] and over 10000 nM in assay [2].

For the compound `O=C(O)c1cccc(CN2CCC(c3nn(C4CC4)c4ccc(C(c5ccc(F)cc5)c5ccc(F)cc5)cc34)CC2)c1` [Compound 243], the values for the EC50 in assay [1] and in assay [2] were 285 nM and over 10000 nM, respectively.

For `NC(=O)c1ccc(C(c2ccc(Cl)cc2)c2ccc3nn(C4CC4)c(C4CCN(S(=O)(=O)C(F)(F)F)CC4)c3c2)cc1` (centres unmarked) [Compound 249, 4-((4-chlorophenyl)(2-cyclopropyl-3-(1-(trifluoromethylsulfonyl)piperidin-4-yl)-2H-indazol-5-yl)methyl)benzamide], the EC50 in assay [1] was 15 nM; in assay [2], over 10000 nM.

For the origin of these results see US9682940B2, “Indazole derivatives useful as CB-1 inverse agonists” (Janssen Pharmaceutica NV, priority 2015, dated 2017).
